This note sets out measurements from patent US7994140B2, “Classes of compounds that interact with GPCRs” (Alchemia Limited, priority 2002, dated 2011).

Structures are written as SMILES.

The target of the assay is T1, MC4 (Homo sapiens, UniProt P32245).
T1 construct: purchased Perkin Elmer BioSignal; host or cells: HEK 293
The assay is described as follows: GPCR radioligand binding (RLB) assay, melanocortin MC4, [125I]NDP-αMSH. The conditions noted are these: for MC4 Inhibition at 4.0 Micromolar: 4.0 micromolar compound. Here is the method: Recombinant human receptors expressed in HEK 293 cells were used for all experiments. Receptor membrane preparations were purchased from Perkin Elmer BioSignal. The labelled ligand used in somatostatin GPCR RLB assays was [^125I]SST-14 and in melanocortin assays was [^125I]NDP-αMSH. All assays were done in a 96-well plate format using either glass fiber filter mats or filter plates. All reagents purchased were of the highest quality.
Specific assay buffer, incubation and washing conditions were optimized for each receptor however they all followed the same general format. The procedures for both filter mat and filter plate formats are based on the receptor manufacturers recommendations or those described extensively in the literature. The procedures are briefly outlined below.
In assays where filter mats are used we incubate receptor membranes, assay buffer and [^125I] labelled ligand in 96 well microplates. Add compounds to incubation mixture and continue incubation for optimized period. Presoak Filter mat GF/B in 0.5% PEI for ˜2 hr at 4° C. On completion of assay mixture incubation add additional 100 μL/well of assay buffer immediately prior to filtration. Filter the assay mixture onto the GF/B filter mat using a cell harvester. Dry the filter mats prior to sealing them into a scintillation counting bag with scintillant. Radioactivity in each well is detected by liquid scintillation counting.
In assays where filter plates are used Multiscreen glass fiber filter plates (Millipore, Cat No MAFCNOB10) are precoated with 0.5% PEI for ˜2 hr at 4° C. All wells are then washed with 200 µl/well assay buffer and filtered using the Multiscreen Separation System. Subsequently receptor membranes, assay buffer and labelled ligands are added to the wells and equilibrated. Compounds for testing are then added to the mixture and incubation is continued for an optimized time. Plates are then put into the Multiscreen Separation System and the assay mixture is filtered through the plate under vacuum. Each well is then washed several times with assay buffer. Plates are then dried prior to putting sealing tape onto the bottom of the plate. Scintillant is added to each well and radioactivity measured by liquid scintillation counting.
Raw data was analysed according to standard methods using either GraphPad Prism software or IDDBS ActivityBase software.

Where [1] appears, read: 10 micromolar compound, recombinant human receptor membranes (HEK 293).

T1 sequence (P32245 whole entry): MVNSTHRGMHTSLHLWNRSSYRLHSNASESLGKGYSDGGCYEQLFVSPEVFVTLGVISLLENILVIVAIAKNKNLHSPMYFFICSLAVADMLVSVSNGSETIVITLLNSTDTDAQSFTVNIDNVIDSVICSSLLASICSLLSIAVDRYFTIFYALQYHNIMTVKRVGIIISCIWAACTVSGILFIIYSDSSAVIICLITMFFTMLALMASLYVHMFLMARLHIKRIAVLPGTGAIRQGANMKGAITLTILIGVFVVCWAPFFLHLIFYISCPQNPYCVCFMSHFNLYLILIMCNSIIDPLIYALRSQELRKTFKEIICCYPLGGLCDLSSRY

Take `COC1C(O)C(COCc2ccc(Cl)cc2)OC(OCc2ccccc2)C1NC(=O)CCCN` (stereo not shown) [Compound 81]: the “MC4 inhibition at 10 micromolar” value under setting [1] is given as “+ (Indicates inhibition greater than . . . 50%)”.
The same measure, in the same setting: then `COC1C(O)C(COCc2ccc(Cl)cc2)OC(OCc2ccccc2)C1NC(=O)CCCNC(=N)N` (stereo not shown) [Compound 82], with “+ (Indicates inhibition greater than . . . 50%)”; and `COC1C(O)C(COCc2ccc(-c3ccccc3)cc2)OC(OCc2ccc(Cl)cc2)C1NC(=O)CNC(=N)N` (stereo not shown) [Compound 83], with “+ (Indicates inhibition greater than . . . 50%)”.
The same measure, in the same setting: then `COC1C(O)C(COCc2ccc(-c3ccccc3)cc2)OC(OCc2ccc(Cl)cc2)C1NC(=O)CCCN` (stereo not shown) [Compound 85], with “+ (Indicates inhibition greater than . . . 50%)”; and `CO[C@H]1[C@H](O)[C@@H](COCc2ccc(Cl)cc2)OC(OCc2ccc(Cl)cc2)[C@@H]1NC(=O)CNC(=N)N` (stereo partly shown) [Compound 92], with “+ (Indicates inhibition greater than . . . 50%)”.
Still for that read-out and setting: then `CO[C@H]1[C@H](O)[C@@H](COCc2ccc(Cl)cc2)OC(OCc2ccc(Cl)cc2)[C@@H]1NC(=O)CCNC(=N)N` (stereo partly shown) [Compound 93], with “+ (Indicates inhibition greater than . . . 50%)”; and `CO[C@H]1[C@H](O)[C@@H](COCc2ccc(Cl)cc2)OC(OCc2ccc(Cl)cc2)[C@@H]1NC(=O)CCCNC(=N)N` (stereo partly shown) [Compound 95], with “+ (Indicates inhibition greater than . . . 50%)”; and `CO[C@H]1[C@H](O)[C@@H](COCc2ccc(-c3ccccc3)cc2)OC(OCCc2ccccc2)[C@@H]1NC(=O)CNC(=N)N` (stereo partly shown) [Compound 96], with “+ (Indicates inhibition greater than . . . 50%)”.
`CO[C@H]1[C@H](O)[C@@H](COCc2ccc(-c3ccccc3)cc2)OC(OCCc2ccccc2)[C@@H]1NC(=O)CCNC(=N)N` (stereo partly shown) [Compound 97]: the “MC4 inhibition at 10 micromolar” value under setting [1] is recorded as “+ (Indicates inhibition greater than . . . 50%)”.
On the same count and under the same terms, then `CO[C@H]1[C@H](O)[C@@H](COCc2ccc(-c3ccccc3)cc2)OC(OCCc2ccccc2)[C@@H]1NC(=O)CCCNC(=N)N` (stereo partly shown) [Compound 99], with “+ (Indicates inhibition greater than . . . 50%)”.
The same measure, in the same setting: then `CO[C@H]1[C@H](O)[C@@H](COCc2ccc3ccccc3c2)OC(OCCc2ccccc2)[C@@H]1NC(=O)CNC(=N)N` (stereo partly shown) [Compound 100], with “+ (Indicates inhibition greater than . . . 50%)”; and `CO[C@H]1[C@H](O)[C@@H](COCc2ccc3ccccc3c2)OC(OCCc2ccccc2)[C@@H]1NC(=O)CCNC(=N)N` (stereo partly shown) [Compound 101], with “+ (Indicates inhibition greater than . . . 50%)”; and `CO[C@H]1[C@H](O)[C@@H](COCc2ccc(Cl)cc2)OC(OCCc2ccccc2)[C@@H]1NC(=O)CNC(=N)N` (stereo partly shown) [Compound 104], with “+ (Indicates inhibition greater than . . . 50%)”.
Regarding `CO[C@H]1[C@H](O)[C@@H](COCc2ccc(Cl)cc2)OC(OCCc2ccccc2)[C@@H]1NC(=O)CCNC(=N)N` (stereo partly shown) [Compound 105], the “MC4 inhibition at 10 micromolar” value under setting [1] is listed as “+ (Indicates inhibition greater than . . . 50%)”.
As for `CO[C@H]1[C@H](O)[C@@H](COCc2ccc(Cl)cc2)OC(OCCc2ccccc2)[C@@H]1NC(=O)CCCNC(=N)N` (stereo partly shown) [Compound 107], the “MC4 inhibition at 10 micromolar” value under setting [1] is on record as “+ (Indicates inhibition greater than . . . 50%)”.
For `CO[C@H]1[C@H](O)[C@@H](COCc2cccc(O)c2)OC(OCc2ccc(-c3ccccc3)cc2)[C@@H]1NC(=O)CNC(=N)N` (stereo partly shown) [Compound 108], under setting [1], the “MC4 inhibition at 10 micromolar” value was “+ (Indicates inhibition greater than . . . 50%)”.
Still for that read-out and setting: then `CO[C@H]1[C@H](O)[C@@H](COCc2cccc(O)c2)OC(OCc2ccc(Cl)cc2)[C@@H]1NC(=O)CCNC(=N)N` (stereo partly shown) [Compound 110], with “+ (Indicates inhibition greater than . . . 50%)”; and `CO[C@H]1[C@H](O)[C@@H](COCc2ccc(-c3ccccc3)cc2)OC(OCc2cccc(O)c2)[C@@H]1NC(=O)CNC(=N)N` (stereo partly shown) [Compound 112], with “+ (Indicates inhibition greater than . . . 50%)”.
Take `CO[C@H]1[C@H](O)[C@@H](COCc2ccc(-c3ccccc3)cc2)OC(OCc2cccc(O)c2)[C@@H]1NC(=O)CCNC(=N)N` (stereo partly shown) [Compound 113]: the “MC4 inhibition at 10 micromolar” value under setting [1] is reported as “+ (Indicates inhibition greater than . . . 50%)”.
On the same count and under the same terms, then `CO[C@H]1[C@H](O)[C@@H](COCc2ccc(-c3ccccc3)cc2)OC(OCc2cccc(O)c2)[C@@H]1NC(=O)CCCN` (stereo partly shown) [Compound 114], with “+ (Indicates inhibition greater than . . . 50%)”; and `CO[C@H]1[C@H](O)[C@@H](COCc2ccc3ccccc3c2)OC(OCc2cccc(O)c2)[C@@H]1NC(=O)CCCNC(=N)N` (stereo partly shown) [Compound 115], with “+ (Indicates inhibition greater than . . . 50%)”; and `CO[C@H]1[C@H](O)[C@@H](COCc2ccc3ccccc3c2)OC(OCc2cccc(O)c2)[C@@H]1NC(=O)CCNC(=N)N` (stereo partly shown) [Compound 116], with “+ (Indicates inhibition greater than . . . 50%)”.
Still for that read-out and setting: the entry for `CO[C@H]1[C@H](O)[C@@H](COCc2ccc3ccccc3c2)OC(OCc2cccc(O)c2)[C@@H]1NC(=O)CCCNC(=N)N` (stereo partly shown) [Compound 117] is “+ (Indicates inhibition greater than . . . 50%)”.
On to `CSC1OC(COCc2ccc3ccccc3c2)C(O)C(OCc2ccc(-c3ccccc3)cc2)C1NC(=O)CN` (stereo not shown) [Compound 185], for which the “MC4 inhibition at 10 micromolar” value under setting [1] is “+ (Indicates inhibition greater than . . . 50%)”.
As for `COCC1OC(OCCc2ccccc2)C(NC(=O)CNC(=N)N)C(OCc2ccccc2)C1O` (stereo not shown) [Compound 261], under “10 micromolar, Example Library 4”, the “MC4 inhibition at 10 micromolar” value is “+ (Indicates inhibition greater than . . . 50%)”.
As for `CSC1OC(COC(=O)Cc2ccccc2)C(O)C(OCc2cccc(N)c2)C1NCc1ccccc1` (stereo not shown) [Compound 308], the “MC4 inhibition at 10 micromolar” value under setting [1] was “+ (Indicates inhibition greater than . . . 50%)”.
As to `CSC1OC(COC(=O)c2c[nH]c3ccccc23)C(O)C(OCc2cccc(N)c2)C1NCc1ccccc1` (stereo not shown) [Compound 309], under setting [1], the “MC4 inhibition at 10 micromolar” value is recorded as “+ (Indicates inhibition greater than . . . 50%)”.
Take `CSC1OC(COC(=O)c2c[nH]c3ccccc23)C(O)C(OCc2cccc(N)c2)C1NCc1ccc(Cl)cc1` (stereo not shown) [Compound 314]: the “MC4 inhibition at 10 micromolar” value under setting [1] is recorded as “+ (Indicates inhibition greater than . . . 50%)”.
With `CSC1O[C@H](COCc2ccccc2)[C@@H](O)[C@H](OCc2cccc(N)c2)[C@H]1NC(=O)Cc1ccccc1` (stereo partly shown) [Compound 317], the “MC4 inhibition at 10 micromolar” value under setting [1] was “+ (Indicates inhibition greater than . . . 50%)”.
Same read-out and setting: then `CSC1O[C@H](COCc2ccccc2)[C@@H](O)[C@H](OCc2cccc(N)c2)[C@H]1NC(=O)c1c[nH]c2ccccc12` (stereo partly shown) [Compound 318], with “+ (Indicates inhibition greater than . . . 50%)”.
The same measure, in the same setting: the entry for `CSC1O[C@H](COCc2ccc(Cl)cc2)[C@@H](O)[C@H](OCc2cccc(N)c2)[C@H]1NC(=O)c1c[nH]c2ccccc12` (stereo partly shown) [Compound 323] is “+ (Indicates inhibition greater than . . . 50%)”.
Same read-out and setting: then `CSC1O[C@H](COCc2ccc(Cl)cc2)[C@@H](O)[C@H](OCc2cccc(N)c2)[C@H]1NC(=O)CCC1CNc2ccccc21` (stereo partly shown) [Compound 325], with “+ (Indicates inhibition greater than . . . 50%)”.
Turning to `CSC1OC(COCc2cccc(N)c2)C(O)C(OCc2ccccc2)C1NC(=O)c1c[nH]c2ccccc12` (stereo not shown) [Compound 328], the “MC4 inhibition at 10 micromolar” value under setting [1] was “+ (Indicates inhibition greater than . . . 50%)”.
`CSC1OC(COCc2cccc(N)c2)C(O)C(OCc2ccc(Cl)cc2)C1NC(=O)CCC1CNc2ccccc21` (stereo not shown) [Compound 332]: the “MC4 inhibition at 10 micromolar” value under setting [1] is “+ (Indicates inhibition greater than . . . 50%)”.
Same read-out and setting: the entry for `CSC1O[C@H](COCc2cccc(N)c2)[C@@H](O)[C@H](OCc2ccccc2)[C@H]1NC(=O)c1ccccc1` (stereo partly shown) [Compound 333] is “+ (Indicates inhibition greater than . . . 50%)”; for `CSC1O[C@H](COCc2cccc(N)c2)[C@@H](O)[C@H](OCc2ccccc2)[C@H]1NC(=O)Cc1ccccc1` (stereo partly shown) [Compound 334] it is “+ (Indicates inhibition greater than . . . 50%)”; for `CSC1O[C@H](COCc2cccc(N)c2)[C@@H](O)[C@H](OCc2ccccc2)[C@H]1NC(=O)/C=C/c1ccccc1` (stereo partly shown) [Compound 335] it is “+ (Indicates inhibition greater than . . . 50%)”.
`CSC1O[C@H](COCc2cccc(N)c2)[C@@H](O)[C@H](OCc2ccc(Cl)cc2)[C@H]1NC(=O)/C=C/c1ccccc1` (stereo partly shown) [Compound 340]: under setting [1], the “MC4 inhibition at 10 micromolar” value is “+ (Indicates inhibition greater than . . . 50%)”.
As for `COC1C(O)C(COCc2ccc3ccccc3c2)OC(OCc2ccc(Cl)cc2)C1NC(=O)C(N)CN` (stereo not shown) [Compound 342], the “MC4 Inhibition at 4.0 Micromolar” value is recorded as “+ (Indicates inhibition greater than . . . 50%)”.
Same read-out and setting: then `COC1C(O)C(COCc2ccc3ccccc3c2)OC(OCc2ccc(Cl)cc2)C1NCC(=O)C1CCCN1` (stereo not shown) [Compound 343], with “+ (Indicates inhibition greater than . . . 50%)”.
